These results are taken from patent US11242351B2, “Tricyclic inhibitors of the BCL6 BTB domain protein-protein interaction and uses thereof” (priority 2017, dated 2022).

One test has as its system Karpas422 cells. Nature of the test: Tumor cell growth inhibition assay. It is filed as cell-based. The conditions noted are these: Homo sapiens, KARPAS-422, 144 h, read-out: GI Karpas EC50. A digest of the protocol: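 Karpas422 cells were dosed over a 10-point concentration range (top 5 μM) and grown 6 days at 37 °C, 5% CO2, in Alpha-MEM with 10% FBS. Viability was read as ATPlite luminescence.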

The target in test [1] is BCL6 BTB domain (biotin-thrombin-BCL6 amino acids 1-129) (Homo sapiens (Human), UniProt P41182). Nature of the test: Surface Plasmon Resonance (SPR) assay. The note with it: Biacore T200, single cycle kinetic analysis. In kind it is binding. On the procedure: Surface Plasmon Resonance (SPR) Assay
SPR studies were performed using a Biacore™ T200 instrument (GE Health Sciences Inc.). […] The Biacore flow rate was set at 100 μl/min. […] Curve fitting and KD calculations were performed with the Biacore T200 Evaluation software (GE Health Sciences Inc).
A general note: Surface plasmon resonance follows binding to a sensor surface in real time, without labels.

For test [2], the system named is BCL6 reporter construct in SuDHL4-3×BCL6-TK-Luc cells. Nature of the test: Cell-based luciferase assay (BCL6 reporter). The conditions noted are these: 48 h, read-out: Luc IC50. A digest of the protocol: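 SuDHL4 cells stably carrying a 3×BCL6-site TK-promoter firefly luciferase reporter, 15,000 cells/well, dosed over 10 concentrations (top 10 μM) and cultured two days at 37° C, 5% CO2. Luciferase luminescence read after room-temperature equilibration with neolite reagent.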

The mark [3] stands for this setting: Karpas422 cells, six days, ATPlite.
[4] abbreviates: SuDHL4-3×BCL6-TK-Luc cells, two days.

Where two headings read alike, the source gives them in different places.

For the compound `C[C@H]1COCCN1c1cc(NC(=O)Cn2cc(-c3cc(C(N)=O)c(O)c(F)c3F)c3c(=O)n4c(nc32)CC(C)(C)C4)c(Cl)c(F)n1` [I-58, (S)-5-(1-(2-((3-chloro-2-fluoro-6-(3-methyl-morpholino)pyridin-4-yl)amino)-2-oxoethyl)-7,7-dimethyl-4-oxo-4,6,7,8-tetrahydro-1H-dipyrrolo[1,2-a:2′,3′-d]pyrimidin-3-yl)-3,4-difluoro-2-hydroxy-benzamide], in the test with Karpas422 cells (setting [3]), the EC50 came out at 96.2 nM. The dissociation constant Kd in test [1] was 28.7 nM. In test [2] (setting [4]), the IC50 is 190 nM.

For `C[C@H]1COCCN1c1cc(NC(=O)Cn2cc(-c3cc(Cl)c(O)c(C(N)=O)c3)c3c(=O)n4c(nc32)CC(C)(C)C4)c(Cl)c(F)n1` [I-59, (S)-3-chloro-5-(1-(2-((3-chloro-2-fluoro-6-(3-methylmorpho-lino)pyridin-4-yl)amino)-2-oxoethyl)-7,7-dimethyl-4-oxo-4,6,7,8-tetrahydro-1H-dipyrrolo[1,2-a:2′,3′-d]pyrimidin-3-yl)-2-hydroxybenzamide], in the test on Karpas422 cells (setting [3]), the half-maximal effective concentration (EC50) turned out to be 48.8 nM. In test [1], the Kd came out at 23.4 nM. Besides, the 50% inhibitory concentration (IC50) in test [2] (setting [4]) turned out to be 190 nM.

Regarding `C[C@H]1CN(C)CCN1c1cc(NC(=O)Cn2cc(-c3cc(Cl)c(O)c(C(N)=O)c3)c3c(=O)n4c(nc32)CC(C)(C)C4)c(Cl)c(F)n1` [I-60, (S)-3-chloro-5-(1-(2-((3-chloro-6-(2,4-dimethylpiperazin-1-yl)-2-fluoropyridin-4-yl)amino)-2-oxoethyl)-7,7-dimethyl-4-oxo-4,6,7,8-tetrahydro-1H-dipyrrolo[1,2-a:2′,3′-d]pyrimidin-3-yl)-2-hydroxybenzamide], in the test on Karpas422 cells, the EC50 stood at 97.2 nM. Binding in test [1] was characterised by a dissociation constant (Kd) of 13.4 nM. For the same compound, the IC50 in test [2] is 186 nM.

For the compound `C[C@H]1CN(C)CCN1c1cc(NC(=O)Cn2cc(-c3cc(Cl)c(O)c(C(N)=O)c3)c3c(=O)n4c(nc32)CCC4)c(Cl)c(F)n1` [I-61, (S)-3-chloro-5-(1-(2-((3-chloro-6-(2,4-dimethylpiperazin-1-yl)-2-fluoropyridin-4-yl)amino)-2-oxoethyl)-4-oxo-4,6,7,8-tetrahydro-1H-dipyrrolo[1,2-a:2′,3′-d]pyrimidin-3-yl)-2-hydroxybenzamide], the EC50 with Karpas422 cells (setting [3]) was found to be 22.2 nM. Besides, in test [1], the Kd was 3.71 nM. Besides, the IC50 in test [2] (setting [4]) was determined as 41.7 nM.

In the case of `C[C@H]1COCCN1c1cc(NC(=O)Cn2cc(-c3cc(Cl)c(O)c(C(N)=O)c3)c3c(=O)n4c(nc32)CCC4)c(Cl)c(F)n1` [I-62, (S)-3-chloro-5-(1-(2-((3-chloro-2-fluoro-6-(3-methylmorpho-lino)pyridin-4-yl)amino)-2-oxoethyl)-4-oxo-4,6,7,8-tetra-hydro-1H-dipyrrolo [1,2-a:2′,3′-d]pyrimi-din-3-yl)-2-hydroxybenzamide], the EC50 in the test with Karpas422 cells (setting [3]) was 31.2 nM. The compound also yielded an equilibrium dissociation constant (Kd) in test [1] of 7.17 nM. In addition, in test [2] (setting [4]), the IC50 came out at 78.5 nM.

`CC1Cc2nc3c(c(-c4cc(C(N)=O)c(O)c(F)c4F)cn3CC(=O)Nc3cc(N4CCN(C)C[C@@H]4C)nc(F)c3Cl)c(=O)n2C1` (stereo partly drawn) [I-63, 5-(1-(2-((3-chloro-6-((S)-2,4-dimethyl-piperazin-1-yl)-2-fluoropyridin-4-yl)amino)-2-oxoethyl)-7-methyl-4-oxo-4,6,7,8-tetrahydro-1H-dipyrrolo[1,2-a:2′,3′-d]pyrimidin-3-yl)-3,4-difluoro-2-hydroxy-benzamide]: the EC50 in the test with Karpas422 cells (setting [3]) was determined as 120 nM. This compound also had a Kd in test [1] of 10.2 nM. The IC50 in test [2] (setting [4]) worked out at 110 nM.

Turning to `CC1Cc2nc3c(c(-c4cc(C(N)=O)c(O)c(F)c4F)cn3CC(=O)Nc3cc(N4CCOC[C@@H]4C)nc(F)c3Cl)c(=O)n2C1` (stereo partly drawn) [I-64, 5-(1-(2-((3-chloro-2-fluoro-6-((S)-3-methylmorpholino)pyridin-4-yl)amino)-2-oxoethyl)-7-methyl-4-oxo-4,6,7,8-tetrahydro-1H-dipyrrolo [1,2-a:2′,3′-d]pyrimidin-3-yl)-3,4-difluoro-2-hydroxybenzamide], in the test on Karpas422 cells (setting [3]), the EC50 turned out to be 174 nM. For the same compound, the Kd in test [1] was 27.4 nM. Besides, the IC50 in test [2] (setting [4]) is 380 nM.

Regarding `CC1Cc2nc3c(c(-c4cc(Cl)c(O)c(C(N)=O)c4)cn3CC(=O)Nc3cc(N4CCN(C)C[C@@H]4C)nc(F)c3Cl)c(=O)n2C1` (stereo partly drawn) [I-65, 3-chloro-5-(1-(2-((3-chloro-6-((S)-2,4-dimethylpiperazin-1-yl)-2-fluoropyridin-4-yl)amino)-2-oxo-ethyl)-7-methyl-4-oxo-4,6,7,8-tetra-hydro-1H-dipyrrolo [1,2-a:2′,3′-d]pyrimi-din-3-yl)-2-hydroxy-benzamide], the EC50 in the test on Karpas422 cells (setting [3]) stood at 42.1 nM. This compound also gave a Kd in test [1] of 6.28 nM. For the same compound, the half-maximal inhibitory concentration (IC50) in test [2] (setting [4]) worked out at 46.8 nM.

Consider `CC1Cc2nc3c(c(-c4cc(Cl)c(O)c(C(N)=O)c4)cn3CC(=O)Nc3cc(N4CCOC[C@@H]4C)nc(F)c3Cl)c(=O)n2C1` (stereo partly drawn) [I-66, 3-chloro-5-(1-(2-((3-chloro-2-fluoro-6-((S)-3-methylmor-pholino)pyridin-4-yl)amino)-2-oxo-ethyl)-7-methyl-4-oxo-4,6,7,8-tetra-hydro-1H-dipyrrolo [1,2-a:2′,3′-d]pyrimi-din-3-yl)-2-hydroxy-benzamide], for which, in the test with Karpas422 cells (setting [3]), the half-maximal effective concentration (EC50) turned out to be 74.2 nM. The affinity in test [1], expressed as Kd, was 15.9 nM. The concentration for half-maximal inhibition (IC50) in test [2] (setting [4]) amounted to 186 nM.

Consider `C[C@H]1CN(C)CCN1c1cc(NC(=O)Cn2cc(-c3cc(C#N)c(O)c4c3OCO4)c3c(=O)n4c(nc32)CCC4)c(Cl)c(F)n1` [I-67, (S)-N-(3-chloro-6-(2,4-dimethyl-piperazin-1-yl)-2-fluoropyridin-4-yl)-2-(3-(6-cyano-7-hydroxybenzo[d][1,3]dioxol-4-yl)-4-oxo-4,6,7,8-tetrahydro-1H-dipyrrolo[1,2-a:2′,3′-d]pyrimidin-1-yl) acetamide], for which, in the test with Karpas422 cells, the EC50 was determined as 874 nM. The same compound had a Kd in test [1] of 6.72 nM. Also, the IC50 in test [2] was 541 nM.

As for `COc1c(-c2cn(CC(=O)Nc3cc(N4CCN(C)C[C@@H]4C)nc(F)c3Cl)c3nc4n(c(=O)c23)CCC4)cc(C(N)=O)c(O)c1OC` [I-68, (S)-5-(1-(2-((3-chloro-6-(2,4-dimethylpiperazin-1-yl)-2-fluoro-pyridin-4-yl)amino)-2-oxoethyl)-4-oxo-4,6,7,8-tetrahydro-1H-dipyrrolo[1,2-a:2′,3′-d]pyrimidin-3-yl)-2-hydroxy-3,4-dimethoxy-benzamide], the EC50 in the test on Karpas422 cells worked out at 1620 nM. The compound also registered a dissociation constant Kd in test [1] of 31.3 nM. The IC50 in test [2] worked out at 3420 nM.

Turning to `COc1c(-c2cn(CC(=O)Nc3cc(N4CCOC[C@@H]4C)ncc3Cl)c3nc4n(c(=O)c23)CCC4)cc(C(N)=O)c(O)c1OC` [I-69, (S)-5-(1-(2-((5-chloro-2-(3-methylmorpholino)pyridin-4-yl)amino)-2-oxoethyl)-4-oxo-4,6,7,8-tetrahydro-1H-dipyrrolo[1,2-a:2′,3′-d]pyrimidin-3-yl)-2-hydroxy-3,4-dimethoxy-benzamide], the concentration giving a half-maximal response (EC50) in the test with Karpas422 cells (setting [3]) was 10000 nM. The Kd in test [1] stood at 294 nM. For the same compound, the IC50 in test [2] (setting [4]) was found to be 7970 nM.

With `COc1c(-c2cn(CC(=O)Nc3cc(N4CCOC[C@@H]4C)nc(F)c3Cl)c3nc4n(c(=O)c23)CCC4)cc(C(N)=O)c(O)c1OC` [I-70, (S)-5-(1-(2-((3-chloro-2-fluoro-6-(3-methyl-morpholino)pyridin-4-yl)amino)-2-oxoethyl)-4-oxo-4,6,7,8-tetra-hydro-1H-dipyrrolo [1,2-a:2′,3′-d]pyrimi-din-3-yl)-2-hydroxy-3,4-dimethoxy-benzamide], the concentration giving a half-maximal response (EC50) with Karpas422 cells was 4070 nM. This compound also registered a dissociation constant Kd in test [1] of 255 nM. Besides, in test [2], the concentration for half-maximal inhibition (IC50) came to 3820 nM.

By EC50 is commonly meant the concentration that produces a half-maximal response. The term Kd denotes a measure of binding affinity in units of concentration. Higher therefore signals weaker binding. The term IC50 denotes the point on the concentration scale where inhibition reaches its midpoint.
